38 molecules from patent US11014961B2, “Self-labeling miniproteins and conjugates comprising them” (priority 2017, dated 2021) can be followed below.

Residues, ends and D or L forms follow the SMILES beside them. No end group written: not given here. *: point of attachment. X1 = O=C(CCCC[C@@H]1SC[C@@H]2NC(=O)N[C@@H]21)NCCCC[C@H](NC(=O)CCOCCOCCOCCOCCOCCOCCOCCOCCOCCOCCOCCOCCSc1c(F)c(F)c(Sc2c(F)c(F)c(*)c(F)c2F)c(F)c1F)C(=O)O

For one series, the target named is T1, proteinase K (Parengyodontium album, UniProt P06873).
T1 construct: purchased Amresco
Put plainly: Protease digestion with proteinase K (LC-MS fraction remaining). The class given is in vitro ADME. The conditions noted are these: 100 μM peptide; for protease stability in presence of CA (noncovalent): with 10×CA (1 mM CA). The method, then: Reactions were performed using 100 μM peptide with […] of proteinase K for general cleavage with the addition of 1 mM CA for C11A and C11S digestions. Reactions were quenched with 49.75% water, 49.75% ACN and 0.5% TFA at selection time point and analyzed by LCMS. TIC-based integrated peak areas were used to determine the amount of material in a given time point normalized to the starting amount. These normalized values there then concerted to fraction remaining and plotted as shown.

Series [1] can be described thus: Second order rate constant of the reaction between miniprotein (MP) and capture agent (CA), LC-MS TIC peak integration. The class given is biochemical. Conditions: for Second order rate constant: 0.1 mM MP, 0.5 mM CA; for reactivity with the CA (in words) / fold increase of second order rate constant relative to MP01: standard reaction conditions; for Rate: Table 4, reaction rates of self-labeling miniprotein sequences.

A short description of series [2]: Thermal melting followed by circular dichroism at 222 nm. The class given is physicochemical. Conditions: CD at 222 nm. As to the method: All experiments were performed at room temperature (˜23.5° C.) using a Jasco J-1500 spectrometer at MIT's Biophysical Instrumentation Facility (BIF). General conditions used were 10 mM sodium phosphate buffer at pH 7.45 with 5 mM TCEP (if a cysteine was present) with 50 μM peptide. CD measurements with C11S and C11A versions of Gen4 (SEQ ID NOs: 138 and 137, respectively) used the same conditions, without TCEP but with varying amount of CA (50 μM up to 500 μM depending on the desired mole ratio). Temperature melt data was obtained using a 0.5° C./minute ramp with data collected at 222 nm. […] For CD of Gen 1 (MP01; SEQ ID NO: 13), Gen1 H19L (MP01-H19L; SEQ ID NO: 62), Gen1 3 ala (MP01-T8/D10/S14A; SEQ ID NO: 69), Gen2 (MP01-Gen2; SEQ ID NO: 71) and Gen3_1 (MP01-Gen3_1; Gen 2-A17E; SEQ ID NO: 116) in their labeled and nonlabeled states, data was obtained in 12.5 mM HEPES, 50 mM NaCl, 2.5 mM MgCl2 and 2.5 mM CaCl2 at pH 7.45 with 5 mM TCEP at 50 µM peptide with or without ˜55 μM CA that had reacted for ˜2 days at room temperature. The CA labeled versions were not purified post reaction and were analyze in their reaction mixture.
Lacking an apparent cysteine pKa modulation, the basis for Gen4's high reactivity again came into question. Both C11A (SEQ ID NO: 134) and C11S (SEQ ID NO: 135) variants were synthesized and assayed them for CA-mediated structural alteration via CD. […]
Background: Circular dichroism is widely used to follow secondary structure.

[3] abbreviates: 5 mM TCEP, 1× selection buffer pH 7.4, RT, a: average of three MP concentrations, c: labeled 1-3 times, d: labeled 1-2 times.
[4] abbreviates: 5 mM TCEP, 1× selection buffer pH 7.4, RT.

T1 sequence (P06873 106-384): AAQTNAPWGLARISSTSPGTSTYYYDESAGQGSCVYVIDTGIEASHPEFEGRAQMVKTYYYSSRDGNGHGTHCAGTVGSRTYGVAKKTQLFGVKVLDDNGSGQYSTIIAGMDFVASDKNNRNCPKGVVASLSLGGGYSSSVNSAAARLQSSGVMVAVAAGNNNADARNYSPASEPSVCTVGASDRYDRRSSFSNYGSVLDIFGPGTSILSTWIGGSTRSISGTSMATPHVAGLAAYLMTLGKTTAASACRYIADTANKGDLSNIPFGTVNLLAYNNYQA

As to `CSCC[C@H](NC(=O)[C@H](CCCCN)NC(=O)[C@H](Cc1ccc(O)cc1)NC(=O)[C@H](CCCCN)NC(=O)[C@H](CCC(N)=O)NC(=O)[C@H](CC(N)=O)NC(=O)[C@@H](N)CCSC)C(=O)N[C@@H](C)C(=O)N[C@@H](CCCCN)C(=O)N[C@@H](C)C(=O)N[C@@H](CSc1c(F)c(F)c(Sc2c(F)c(F)c(SCCOCCOCCOCCOCCOCCOCCOCCOCCOCCOCCOCCOCCC(=O)N[C@@H](CCCCNC(=O)CCCC[C@@H]3SC[C@@H]4NC(=O)N[C@@H]43)C(=O)O)c(F)c2F)c(F)c1F)C(=O)N[C@@H](Cc1ccccc1)C(=O)N[C@@H](Cc1ccccc1)C(=O)N[C@@H](C)C(=O)N[C@@H](Cc1ccccc1)C(=O)N[C@@H](CC(C)C)C(=O)N[C@@H](CCC(=O)O)C(=O)N[C@@H](Cc1c[nH]cn1)C(=O)N[C@@H](CC(C)C)C(=O)N[C@@H](CCCCN)C(=O)N[C@@H](CCCCN)C(=O)N[C@@H](CCCNC(=N)N)C(=O)N[C@@H](CCCCN)C(=O)N[C@@H](CC(C)C)C(=O)N[C@@H](Cc1ccc(O)cc1)C(=O)N1CCC[C@H]1C(=O)N[C@@H](CCSC)C(=O)N[C@@H](CO)C(=O)NCC(N)=O` [Gen4-CA] (H-MNQKYKMAKAC(X1)FFAFLEHLKKRKLYPMSG-NH2), the protease stability entry with proteinase K was “significantly increased protease resistance”.

With KMTKDCFFSFL-NH2 [MP01-T, KMTKDCFFSFL], the “Second order rate constant” value in series [1] (setting [3]) was 0.06 M⁻¹ s⁻¹. In addition, in series [1], the “reactivity with the CA (in words)” value was “severely diminished activity”.

In turn, “MGHLHICMVWRVNTSGHILSVGHKSYSSHKTG-NH2 [MP13]” gave a Rate in series [1] of 2.41 M⁻¹ s⁻¹.

Take “MGIVHNATRFPKRCFYSFIATRQSKNSIRVSG-NH2 [MP06]”: in series [1] (setting [3]), the “Second order rate constant” value was 0.11 ± 0.01 M⁻¹ s⁻¹.

With “MHAKYKMAKACFFAFLAHLKKRKLYPMSG-NH2 [Gen 2-Q3A]”, the “reactivity with the CA (in words)” value in series [1] was “no alteration”.

Molecule “MHHYCSKMKRRILMHYLFANTMAHRDLGTNG-NH2 [MP15]” registered a Rate in series [1] of 10.09 M⁻¹ s⁻¹.

In series [1], “MHLRMIRYLNRRRHLCHVVEIRHGLFASREIG-NH2 [MP16]” displayed a Rate of 0.19 M⁻¹ s⁻¹.

On to “MHMHKTTSYRIRVLVGVDVYRMSHTCLTSSSG-NH2 [MP19]”, for which the Rate in series [1] came to 0.21 M⁻¹ s⁻¹.

As for “MHQKYKMAAACFFAFLAHLKKRKLYPMSG-NH2 [Gen 2-K9A]”, the “reactivity with the CA (in words)” value in series [1] is “no alteration”.

Turning to “MHQKYKMAKACFFAFLAHHKKRKLYPMSG-NH2 [triple alanine variant]”, the “Second order rate constant” value in series [1] (setting [4]) is 1.82 M⁻¹ s⁻¹. Besides, the “fold increase of second order rate constant relative to MP01” value in series [1] is recorded as 6.3 fold.

For the molecule “MHQKYKMAKACFFAFLAHLAKRKLYPMSG-NH2 [Gen 2-K20A]”, the “reactivity with the CA (in words)” value in series [1] is listed as “no alteration”.

As for “MHQKYKMAKACFFAFLAHLKKRKLYPMSG-NH2 [MP01-Gen2]”, the “fold increase of second order rate constant relative to MP01” value in series [1] was found to be 32.2 fold.

On to “MHQKYKMAKACFFAFLEHLKKRKLYPMSG-NH2 [Gen3_1]”, for which the “reactivity with the CA (in words)” value in series [1] is “increased the rate of reaction”.

For the molecule “MHQKYKMTKDCFFSFLAHLKKRKLYPMSG-NH2 [MP01-H19L]”, the “fold increase of second order rate constant relative to MP01” value in series [1] came to 7.5 fold.

In the case of “MHQKYKMTKDCFFSFLAHVKKRKLYPMSG-NH2 [MP01-H19V]”, the “reactivity with the CA (in words)” value in series [1] is listed as “progressively improved rate constants”.

Take “MHQKYKMTKDSFFSFLAHHKKRKLYPMSG-NH2 [SEQ ID NO: 91]”: the “reactivity with the CA (in words)” value in series [1] was “all reactivity was lost”.

On to “MHTSLRSRAKSHSRSFGKCASIYTRYLKMG-NH2 [MP20]”, for which, in series [1], the Rate is 1.22 M⁻¹ s⁻¹.

With “MKTFSSDQRFSKKCYRIYFHKLRQRNHNTSVG-NH2 [MP07]”, the “Second order rate constant” value in series [1] (setting [3]) is on record as 0.91 ± 0.14^a M^−1 s^−1.

Regarding “MLFMRLTKKTMATKFCPFRRKRKHRERRALYG-NH2 [MP27]”, the Rate in series [1] turned out to be 0.61 M⁻¹ s⁻¹.

In series [1], “MNGHYPCYLITSVLVGATTSGVPVVVHLRVG-NH2 [MP17]” came in with a Rate of 0.11 M⁻¹ s⁻¹.

Regarding “MNQKYKMAKAAFFAFLEHLKKRKLYPMSG-NH2 [Gen4(C11A)]”, the “protease stability in presence of CA (noncovalent)” value at proteinase K is reported as “improved protease stability”.

Turning to “MNQKYKMAKACFFAFLAHLKKRKLYPMSG-NH2 [Gen3_2]”, the “reactivity with the CA (in words)” value in series [1] is reported as “increased the rate of reaction”.

Take “MNQKYKMAKACFFAFLEHLKKRKLYPMSG-NH2 [MP01-Gen4]”: the “reactivity relative to a random cysteine containing peptide” value in series [1] is ~4×10^3 times. The “second order rate constant relative to the initial MP01 scaffold” value in series [1] is listed as about 100 times. For the same molecule, the “reaction rate with ammonium sulfate” value in series [1] (2 μM ammonium sulfate (so in the source)) came to 3.9 M⁻¹ s⁻¹. The “reaction rate with sodium chloride” value in series [1] (2 μM sodium chloride (so in the source)) was determined as 6.1 M⁻¹ s⁻¹. In addition, the “reactivity under denaturant guanidinium chloride” value in series [1] (2-3 M guanidinium chloride, pH 7.45) is “near complete ablation of reactivity”. In addition, the entries for the “rate constant with TMAO” value in series [1] (trimethylamine N-oxide (TMAO) at 0.5 μM (so in the source)) and in series [1] (trimethylamine N-oxide (TMAO) at 1 μM (so in the source)) were about 9.7 M⁻¹ s⁻¹ and about 7.5 M⁻¹ s⁻¹, respectively. The “thermal melting behaviour (in words)” value in series [2] (4-95° C.) is “broad, gradually increasing trend”.

Regarding “MNQKYKMAKASFFAFLEHLKKRKLYPMSG-NH2 [Gen4(C11S)]”, the “protease stability in presence of CA (noncovalent)” value at proteinase K is given as “improved protease stability”. Besides, in series [2] (50 μM peptide with 10×CA (500 μM)), the “thermal melting behaviour (in words) with CA” value is recorded as “gradually increasing CD signal albeit with a shift to higher temperatures”.

“MNRIFHKRSTYQMVFGRCSDFTSTYHVLISYG-NH2 [MP25]”: in series [1], the Rate was 0.25 M⁻¹ s⁻¹.

On to “MPNYGPLSPSQPSHGYTFWMVPIWDNSHNAAG-NH2 [MP02]”, for which the “Second order rate constant” value in series [1] (footnote b: construct with the full length C-terminal region (-SGSLGHHHHHHRL)) was “No Reaction^b”. Besides, in series [1], the “reactivity with the CA (in words)” value is reported as “did not react”.

On to MQHEDLCTWYGFCPSGNFTPRNLRGDSDG [MP08], for which the “Second order rate constant” value is 0.04 M⁻¹ s⁻¹ in series [1] (setting [4]) and 0.04^d M^−1 s^−1 in series [1] (setting [3]).

In the case of “MQNSKHRPRRCLRLLPLLRGHLHRMFRERG-NH2 [MP21]”, in series [1], the Rate turned out to be 2.00 M⁻¹ s⁻¹.

“MRHYHLTCFQGFRIFRRTVDSLEMEISLG-NH2 [MP18]”: in series [1], the Rate came to 0.17 M⁻¹ s⁻¹.

On to MRPCARRDRTLWCPFDSPAWFLLSGFSCG [MP05], for which the “Second order rate constant” value in series [1] (setting [4]) is 0.93 ± 0.11 M⁻¹ s⁻¹; in series [1] (setting [3]) it was 0.93 ± 0.11^c M^−1 s^−1.

In series [1], “MRRTPSTRARGRVFLLPTLRFFITLCNLNG-NH2 [MP24]” registered a Rate of 0.02 M⁻¹ s⁻¹.

“MRSTHQRVRRPRNLCSFKHKWLIKFLKTLTG-NH2 [MP22]” showed a Rate in series [1] of 4.94 M⁻¹ s⁻¹.

As to “MRTPIKFAPRLSQPFCPFRKQHQLHLHPLIEG-NH2 [MP04]”, the “Second order rate constant” value in series [1] (setting [3]) is 0.24 ± 0.01 M⁻¹ s⁻¹.

Consider MRYIYVLRLKSWCGGASARSSPRSCATKLLG [MP09], for which the “Second order rate constant” value in series [1] (setting [3]) was 0.52 ± 0.01^d M^−1 s^−1. Further, in series [1] (standard conditions, en route to being labeled twice), the “initial rate (biphasic kinetics)” value worked out at 0.52 M⁻¹ s⁻¹.

The molecule “MSSGTHYGILNMVIRCHLVKNQTSQMVVLTTG-NH2 [MP14]” returned a Rate in series [1] of 0.12 M⁻¹ s⁻¹.

Turning to “MTATSSSTSRGCRPSTAQVVQRLRGLLLVVG-NH2 [MP26]”, the Rate in series [1] was determined as 0.07 M⁻¹ s⁻¹.

Regarding “MTSVTASLLMHFCPIRAHITNKPSFNPSG-NH2 [MP03]”, in series [1] (setting [3]), the “Second order rate constant” value came to 0.04 M⁻¹ s⁻¹.

For the molecule “MVKLSGKERTTRNCFFSFLASRRTKKFNNLSG-NH2 [MP12]”, in series [1], the Rate turned out to be 0.23 M⁻¹ s⁻¹.
